Reference: patent US20250296909A1, “NOVEL BENZENE DERIVATIVE AND IMMUNOSUPPRESSION-RELATED USE THEREOF” (PROVIBIO CO., LTD., priority 2021, published 2025)
Where two headings read alike, the source gives them in different places.

Experiments:
spleen T cells = experiment: T cell proliferation inhibition (CFSE, FACS), CD3/CD28-activated spleen T cells; format: cell-based, C57BL/6 mice; details: for inhibition at 10 µM / inhibition at 30 µM / inhibition at 50 µM: Mus musculus, T-cell, read-out: Proliferation inhibition rate (%)
Procedure: To investigate whether the compounds obtained in the Preparation Example have an inhibitory effect on T cell proliferation, the T cell proliferation was determined ex vivo using the fluorescent dye carboxyfluorescein diacetate succinimidyl ester (CFSE), which binds to intracellular molecules by covalent bonds.
Spleens were harvested and minced from C57BL/6 mice at 7 weeks of age, and then single cells were isolated using a strainer (40 μm pore size, SPL). Red blood cells were removed using ACK (Ammonium-Chloride-Potassium) lysis buffer to isolate only leukocytes. Subsequently, CD90.2 microbeads (130-121-278, Miltenyi Biotech.) were added, and subjected to react at 4° C. for 20 minutes. After that, spleen T cells were isolated using a MACS Magnetic Stand and LS column. The isolated T cells from the spleen were resuspended in 1 mL of Free media (RPMI-1640+200 U/mL penicillin+200 μg/mL streptomycin), followed by the addition of 0.3 μL of CFSE (10 mM), and reacted at 37° C. for 5 minutes. Subsequently, 10 mL of Free media was added to stop the reaction, and the cells were centrifuged to obtain the cell pellet. RPMI 1640 medium containing 10% FBS, 100 U/mL penicillin, and 100 μg/mL streptomycin was added to suspend the cells, and 2×10^5 cells per well were seeded into a 96-well plate and T cells were activated by treatment with CD3 and CD28 antibodies (each at 0.5 μg/mL).
The compound diluted in DMSO was treated in triplicate at concentrations of 10 μM, 30 μM, and 50 μM, respectively. After incubation at 37° C. with 5% CO2 for 3 days, cell proliferation levels were determined using a FACS Canto machine.
In the FACS graph of FIG. 1, the y-axis represents the quantity (number) of cells, while the x-axis represents the fluorescence level of the cells. […] This reduction in CFSE fluorescence results in a leftward shift along the x-axis in the graph. This indicates cell proliferation.
To collectively indicate the proliferation inhibition rate for the experimental results, the relative value of the proliferation amount after compound administration to the proliferation amount after CD3/CD28+DMSO administration was calculated. Subsequently, it was converted into an inhibition amount and expressed as a percentage, thereby determining the proliferation inhibition rate. Specifically, the proliferation inhibition rate was calculated as follows: […]

[1] = tested on: T lymphocyte cell line Jurkat E6-1; experiment: Cytotoxicity experiment (CCK-8, relative cell survival); format: cell-based; details: 24 hours, untreated cells = 100%
Procedure: To evaluate the cytotoxicity of the compound according to the present invention, the following experiment was conducted.
The T lymphocyte cell line Jurkat E6-1, purchased from the Korean Cell Line Bank, was cultured in RPMI-1640 medium comprising 10% FBS, 100 U/mL penicillin, and 100 μg/mL streptomycin. After culturing, the cells were harvested and centrifuged at 1,300 rpm for 5 minutes. After removal of the supernatant, the cells were resuspended in the same medium at a concentration of approximately 2.2×10^5 cells/mL, and 90 μL of the cell suspension was distributed per well into a 96-well plate (Costar 96 well cell culture plate, Corning). After treating 10 μL of each compound at different concentrations onto the respective wells of the plate, it was cultured for 24 hours at 37° C. in a 5% CO2 incubator. Subsequently, 10 μL of CCK-8 was added to each well, and it was cultured again for 2 hours at 37° C. in a 5% CO2 incubator. Absorbance was then measured at 450 nm to determine the relative cell survival rate compared to untreated cells, as shown in Table 4.
The values listed in Table 4 represent the relative cell survival rates in the groups treated with each compound at different concentrations, with the cell survival rate of untreated cells set as 100%.

[2] = 72 h, Table 2, 10 μM, 3 days, relative to CD3/CD28+DMSO
[3] = 72 h, Table 2, 30 μM, 3 days, relative to CD3/CD28+DMSO
[4] = 72 h, Table 2, 50 μM, 3 days, relative to CD3/CD28+DMSO
[5] = Table 2, 10 μM, 3 days, relative to CD3/CD28+DMSO
[6] = Table 2, 30 μM, 3 days, relative to CD3/CD28+DMSO
[7] = Table 2, 50 μM, 3 days, relative to CD3/CD28+DMSO
[8] = Table 3 (compounds not belonging to Formula 1), 10 μM
[9] = Table 3 (compounds not belonging to Formula 1), 30 μM
[10] = Table 3 (compounds not belonging to Formula 1), 50 μM

Row | SMILES | inhibition at 10 µM (spleen T cells; [2]) [%] | inhibition at 30 µM (spleen T cells; [3]) [%] | inhibition at 50 µM (spleen T cells; [4]) [%] | Relative cell survival rate (%) ([1]; 10 μM) | Relative cell survival rate (%) ([1]; 20 μM) | Relative cell survival rate (%) ([1]; 30 μM) | Relative cell survival rate (%) ([1]; 50 μM) | Proliferation inhibition rate (%) (spleen T cells; [5]) | Proliferation inhibition rate (%) (spleen T cells; [6]) | Proliferation inhibition rate (%) (spleen T cells; [7]) | inhibition at 10 µM (spleen T cells; [8]) [%] | inhibition at 30 µM (spleen T cells; [9]) [%] | inhibition at 50 µM (spleen T cells; [10]) [%] | cell proliferation read by FACS (FIG. 2) (spleen T cells; concentrations ranging from 10 to 30 μM)
1 | CCCCCCCCNCCCNC(=O)c1nccnc1Cl [Compound 82] | 60 | 80 | 85 | 95 | 90 | 97 | 88 |  |  |  |  |  |  | 
2 | CCCCCCCCCCCCNC(=O)c1c(Cl)ccnc1Cl [Compound 30] | 16 | 41 | 55 | 120 | 109 | 108 | 106 |  |  |  |  |  |  | 
3 | CCCCCCCCCCCCNC(=O)Cc1ccccc1 [Compound 25] | 20 | 90 | 99 | 95 | 90 | 87 | 84 |  |  |  |  |  |  | 
4 | CCCCCCCCCCCC(=O)NCc1ccccc1Br [Compound 43] | 27 | 50 | 72 | 101 | 104 | 108 | 108 |  |  |  |  |  |  | 
5 | CCCCCCCCCCCCNC(=O)c1ccccc1[N+](=O)[O-] [Compound 50] |  |  |  | 74 | 75 | 70 | 68 | 0 | 66 | 97 |  |  |  | 
6 | CCCCCCCCCCCCNC(=O)c1cccnc1Br [Compound 76] |  |  |  | 115 | 95 | 92 | 70 | 36 | 49 | 65 |  |  |  | 
7 | CCCCCCCCCNC(=O)/C=C/c1ccccc1Br [Compound 10] | 15 | 72 | 92 | 91 | 88 | 85 | 83 |  |  |  | 5 | 9 | 3 | 
8 | CCCCCCCCNC(=O)c1cccnc1N [Compound 74] | 66 | 91 | 95 | 101 | 84 | 81 | 77 |  |  |  |  |  |  | 
9 | CCCCCCCCCCCCNC(=O)c1ccccc1-c1ccc(C)cc1 [Compound 27] | 62 | 96 | 100 | 109 | 77 | 71 | 63 |  |  |  |  |  |  | 
10 | CCCCCCCCCCCCNC(=O)c1ccccc1NC [Compound 65] | 39 | 43 | 77 | 87 | 84 | 86 | 77 |  |  |  |  |  |  | 
11 | CCCCCCCCCCCCNC(=O)c1cccnc1C(F)(F)F [Compound 77] |  |  |  | 116 | 124 | 123 | 123 | 24 | 47 | 66 |  |  |  | 
12 | CCCCNC(=O)c1ccccc1F [Compound 81] |  |  |  | 103 | 105 | 107 | 108 |  |  |  | 0 | 2 | 22 | 
13 | CCCCCCCCCCCCNS(=O)(=O)c1ccccc1F [Compound 45] |  |  |  | 96 | 94 | 76 | 74 | 30 | 59 | 97 |  |  |  | 
14 | CCCCCCCCCCCCNC(=O)c1ccccc1C(=O)NC1CCCCC1 [Compound 53] | 22 | 65 | 85 | 96 | 97 | 98 | 95 |  |  |  |  |  |  | 
15 | CCCCCCCCCCCCNS(=O)(=O)c1c(F)cccc1F [Compound 54] | 55 | 60 | 77 | 89 | 83 | 77 | 76 |  |  |  |  |  |  | 
16 | C=Cc1ccccc1C(=O)NCCCCCCCCCCCC [Compound 57] | 93 | 100 | 100 | 108 | 108 | 104 | 101 |  |  |  |  |  |  | 
17 | CCCCCCCCCCCCNC(=O)c1cccnc1O [Compound 70] | 29 | 78 | 98 | 119 | 122 | 124 | 125 |  |  |  |  |  |  | 
18 | CCCCCCCCCCCCNC(=O)c1ccncc1Cl [Compound 12] | 5 | 38 | 99 | 100 | 92 | 83 | 79 |  |  |  |  |  |  | 
19 | CCCCCCCCCCCCNC(=O)c1cccnc1Cl [Compound 13] | 10 | 48 | 100 | 95 | 71 | 70 | 57 |  |  |  |  |  |  | 
20 | CCCCCCCCCCCCNC(=O)c1cccnc1Nc1cccc(C(F)(F)F)c1 [Compound 33] | 33 | 100 | 100 | 100 | 91 | 79 | 70 |  |  |  |  |  |  | 
21 | CCCCCCCCCCCCNC(=O)c1ccccc1-n1cccc1 [Compound 84] | 89 | 96 | 100 | 96 | 94 | 96 | 94 |  |  |  |  |  |  | inhibition of cell proliferation
